# Experimental data reported in patent publication US4021544A, “Complement inhibitors” (American Cyanamid Company, priority 1976, dated 1977).
# Where “and” joins values, the source holds several entries; their conditions need not be identical. Equal values may be shown once. Where a name gives a salt, the structure may show the parent alone.
# Experiments:
# [1] = molecular target: activated human C1 (Homo sapiens, UniProt P09871); assay: Test, Code 026 (C1 inhibitor); type: biochemical; conditions: for 026 Wells: Table I, serial two-fold dilution assay, higher well number indicates higher activity; for LOGARITHMIC DIFFERENCE EXPRESSED AS WELLS / INTRINSIC THERAPEUTICAL INDEX / COMPLEMENT INHIBITING ACTIVITY (WELLS) CODE 026: Table II; for LOGARITHMIC DIFFERENCE EXPRESSED AS WELLS: Code 026 wells minus AC wells (base 2); for INTRINSIC THERAPEUTICAL INDEX: antilogarithm (base 2) of difference between Code 026 wells and AC wells; for COMPLEMENT INHIBITING ACTIVITY (WELLS) CODE 026: highest active serial dilution
# Excerpt: (§1) An active inhibitor protects C2 from C1 and C4; (ii) Test, Code 035 (C3- C9 inhibitor) - This test determines the ability of the late components of human complement (C3-C9) to lyse EAC 142 in the presence of appropriate dilutions of the test compound. An active inhibitor protects EAC 142 from lysis by human C3-C9; (iii) Test, Code 036 (C-Shunt inhibitor) - In this test human erythrocytes rendered fragile are lysed in autologous serum via the shunt pathway activated by cobra venom factor in the presence of appropriate dilutions of the test compound. Inhibition of the shunt pathway results in failure of lysis; (iv) Forssman Vasculitis Test - Here, the well known complement dependent lesion, Forssman vasculitis, is produced in guinea pigs by intradermal injection of rabbit anti-forssman antiserum. The lesion is measured in terms of diameter, edema and hemorrhage and the extent to which a combined index of these is inhibited by prior intraperitoneal injection of the test compound at 200 mg/kg in then reported, unless otherwise stated; (v) Forssman Shock Test -- Lethal shock is produced in guinea pigs by an i.v. injection of anti-Forssman antiserum and the harmonic mean death time of treated guinea pigs is compared with that of simultaneous controls; (vi) Complement Level Reduction Test -- In this test, the above dosed guinea pigs, or others, are bled for serum and the complement level is determined in undiluted serum by the capillary tube method of U.S. Pat. No. 3,876,376 and compared to undosed control guinea pigs; and (vii) Cap 50 Test -- Here, appropriate amounts of the test compound are added to a pool of guinea pig serum in vitro, after which the undiluted serum capillary tube assay referred to above is run. The concentration of compound inhibiting 50% is reported.
# [2] = system: shunt pathway activated by cobra venom factor; assay: Test, Code 036 (C-Shunt inhibitor); type: cell-based; conditions: Table I, lysis of fragile human erythrocytes in autologous serum, serial two-fold dilution assay, higher well number indicates higher activity
# Excerpt: as §1
# [3] = system: Citrated sheep plasma; assay: In vitro anti-coagulant activity (AC) test; conditions: for A.C. Wells: Table I, clot inhibition, recalcified citrated sheep plasma, serial two-fold dilutions; for ANTI-COAGULANT ACTIVITY (WELLS) AC: Table II, highest active serial dilution
# Procedure: The sheep RBC'S, kept in suspension throughout the clotting incubation time, become enmeshed in the fibrin matrix if a clot forms. Upon centrifugation of the plate untrapped RBC's form buttons, the sizes of which correspond to the degree of clot inhibition; this providing a measure of anti-coagulant activity (AC).
# [4] = system: late components of human complement (C3-C9); assay: Test, Code 035 (C3-C9 inhibitor); type: biochemical; conditions: Table I; lysis of EAC 142; serial two-fold dilution assay, higher well number indicates higher activity
# Excerpt: as §1
Molecule,026 Wells [1],LOGARITHMIC DIFFERENCE EXPRESSED AS WELLS [1],INTRINSIC THERAPEUTICAL INDEX [1],COMPLEMENT INHIBITING ACTIVITY (WELLS) CODE 026 [1],036 Wells [2],A.C. Wells [3],ANTI-COAGULANT ACTIVITY (WELLS) AC [3],035 Wells [4],COMPLEMENT INHIBITING ACTIVITY (WELLS) CODE 026 ([1]; Sodium Salt),A.C. Wells ([3]; Sodium Salt),ANTI-COAGULANT ACTIVITY (WELLS) AC ([3]; Sodium Salt),036 Wells ([2]; Sodium Salt)
Maltotriose Poly(H-)sulfate Sodium Salt,+9 Wells,+10 WELLS,1024,+9 WELLS,Neg.,-1 Wells,-1 WELLS,Neg.,–,–,–,–
O=S(=O)(O)OC[C@H]1O[C@H](O[C@H]2[C@H](OS(=O)(=O)O)[C@@H](OS(=O)(=O)O)[C@@H](O[C@H]3[C@H](OS(=O)(=O)O)[C@@H](OS(=O)(=O)O)[C@@H](O[C@H]4[C@H](OS(=O)(=O)O)[C@@H](OS(=O)(=O)O)C(OS(=O)(=O)O)O[C@@H]4COS(=O)(=O)O)O[C@@H]3COS(=O)(=O)O)O[C@@H]2COS(=O)(=O)O)[C@H](OS(=O)(=O)O)[C@@H](OS(=O)(=O)O)[C@@H]1O[C@H]1O[C@H](COS(=O)(=O)O)[C@@H](O[C@H]2O[C@H](COS(=O)(=O)O)[C@@H](O[C@H]3O[C@H](COS(=O)(=O)O)[C@@H](OS(=O)(=O)O)[C@H](OS(=O)(=O)O)[C@H]3OS(=O)(=O)O)[C@H](OS(=O)(=O)O)[C@H]2OS(=O)(=O)O)[C@H](OS(=O)(=O)O)[C@H]1OS(=O)(=O)O (stereo partly drawn) [Maltoheptaose Poly(H-)sulfate Trimethylamine Salt],+9 Wells,+5 WELLS,–,+9 WELLS,5 Wells,+4 Wells,+4 WELLS,–,–,–,–,–
"O=S(=O)(O)OC[C@H]1O[C@H](O[C@H]2[C@H](OS(=O)(=O)O)[C@@H](OS(=O)(=O)O)C(OS(=O)(=O)O)O[C@@H]2COS(=O)(=O)O)[C@H](OS(=O)(=O)O)[C@@H](OS(=O)(=O)O)[C@@H]1OS(=O)(=O)O (stereo partly drawn) [Maltose Poly(H--) sulfate sodium salt, Maltose Poly (H-)Sulfate Sodium Salt]",–,–,–,–,–,–,–,–,+12 WELLS,+2 Wells,+2 WELLS,–
Maltotriose Poly(H-)sulfate Trimethylamine Salt,+7 Wells,+8 WELLS,256,+7 WELLS,Neg.,-1 Wells,-1 WELLS,Neg.,–,–,–,–
O=S(=O)(O)OC[C@H]1O[C@H](O[C@H]2[C@H](OS(=O)(=O)O)[C@@H](OS(=O)(=O)O)C(OS(=O)(=O)O)O[C@@H]2COS(=O)(=O)O)[C@H](OS(=O)(=O)O)[C@@H](OS(=O)(=O)O)[C@@H]1OS(=O)(=O)O (stereo partly drawn) [Maltose Poly(H-)Sulfate Trimethylamine Salt],–,+10 WELLS,1024,+8 WELLS,Neg.,-2 Wells,-2 WELLS,Neg.,–,–,–,–
O=S(=O)(O)OC[C@H]1O[C@H](O[C@H]2[C@H](OS(=O)(=O)O)[C@@H](OS(=O)(=O)O)[C@@H](O[C@H]3[C@H](OS(=O)(=O)O)[C@@H](OS(=O)(=O)O)[C@@H](O[C@H]4[C@H](OS(=O)(=O)O)[C@@H](OS(=O)(=O)O)C(OS(=O)(=O)O)O[C@@H]4COS(=O)(=O)O)O[C@@H]3COS(=O)(=O)O)O[C@@H]2COS(=O)(=O)O)[C@H](OS(=O)(=O)O)[C@@H](OS(=O)(=O)O)[C@@H]1O[C@H]1O[C@H](COS(=O)(=O)O)[C@@H](O[C@H]2O[C@H](COS(=O)(=O)O)[C@@H](O[C@H]3O[C@H](COS(=O)(=O)O)[C@@H](OS(=O)(=O)O)[C@H](OS(=O)(=O)O)[C@H]3OS(=O)(=O)O)[C@H](OS(=O)(=O)O)[C@H]2OS(=O)(=O)O)[C@H](OS(=O)(=O)O)[C@H]1OS(=O)(=O)O (stereo partly drawn) [Maltoheptaose Poly(H-)sulfate Sodium Salt],–,–,–,–,–,–,–,–,–,–,–,6 Wells and 5 Wells
